Laboratory results published in patent US20250296938A1, “Compounds that Interact with the Ras Superfamily for the Treatment of Cancers, Inflammatory Diseases, Rasopathies, and Fibrotic Disease” (SHY Therapeutics, LLC, priority 2018, published 2025).

What was measured:
IL-6 = assay: Mouse IL6 quantification assay, LPS-stimulated RAW 264.7 macrophages; assay type: cell-based; settings: for inhibition at 10 µM: RAW264.7, 10 μM, LPS (100 ng/ml) added concurrently, 5 hours, RAW 264.7; for inhibition at 30 µM: RAW264.7, 30 μM, LPS-stimulated RAW 264.7 macrophages
Procedure: (§1) Cell lines: Abelson murine leukemia virus transformed macrophage cell line RAW 264.7 was purchased from ATCC and grown in complete DMEM-High Glucose medium supplemented with penicillin (100 U/mL), streptomycin (100 μg/mL), and 10% heat-inactivated FBS at 37° C. in a humidified incubator with 5% CO2.
(§2) Method: Cells were plated at 25000-40000 cells/well density in a 96-well plate. After a 3-hour incubation, macrophages were starved with DMEM plus 0.5% FBS overnight. The next day the small molecules to be tested were added to the cells in the final concentration of 30 μM (with 0.3% DMSO) 3 hours prior to LPS stimulation (100 ng/ml). After LPS stimulation cells were incubated at 37° C. for 16 h. Alternatively, compounds were also tested at 10 μM and LPS (100 ng/ml) was added concurrently and incubated 5 hours at 37° C. At the end of the incubation periods, culture medium was collected and production of LPS-induced TNF-α and IL-6 cytokine was measured using ELISA detection kits.
(§3) Sandwich ELISA: The ELISA Immunoassays Quantikine Mouse TNF-alpha (catalog number MTA00B) and IL6 (catalog number M6000B) were purchased from R&D Systems Inc., Minneapolis, MN. These 4.5 hours solid phase ELISAs were used to measure mouse TNF-α or IL-6 levels in macrophages culture supernatants. Assays were executed according to the manufacturer specifications.

TNF-α = assay: Mouse TNF alpha quantification assay, LPS-stimulated RAW 264.7 macrophages; assay type: cell-based; settings: for inhibition at 10 µM: RAW264.7, 10 μM, LPS (100 ng/ml) added concurrently, 5 hours, RAW 264.7, read-out: TNFα % Inhibition; for inhibition at 30 µM: RAW264.7, 30 μM, LPS-stimulated RAW 264.7 macrophages
Procedure: as §1, §2, §3

| Compound | inhibition at 10 µM (IL-6) | inhibition at 10 µM (TNF-α) | inhibition at 30 µM (IL-6) | inhibition at 30 µM (TNF-α) |
| --- | --- | --- | --- | --- |
| CO[C@H]1C[C@@H](Nc2nc(-c3nccn3C)nc3sc(C(=O)NC(C)C)c(-c4ccccc4)c23)C1 [drawing 785] | 1 to 25% | 0% | – | – |
| Cn1ccnc1-c1nc(O)c(O)c(C(=O)N2CCCC2)n1 [drawing 739] | – | – | 0% | 1 to 25% |
| COC1CCN(c2nc(-c3nccn3C)nc3sc(-c4cccc(O)c4F)c(-c4ccccc4)c23)C1 (centres unmarked) [drawing 755] | 26 to 50% | 1 to 25% | – | – |
| CC(C)COc1ccc(-c2csc3c(O)nc(-c4nccn4Cc4ccccn4)nc23)cn1 [drawing 764] | 76 to 100% | 1 to 25% | – | – |
| COc1cccc(-c2csc3c(O)nc(-c4nccn4C)nc23)c1Cl [drawing 663] | – | – | 76 to 100% | 26 to 50% |
| COCCNc1nc(-c2cn(C)cn2)nc2sc(-c3ccccc3Cl)c(-c3ccc(OC)cc3)c12 [drawing 699] | – | – | 76 to 100% | 76 to 100% |
| COCCn1cc(-c2sc3nc(-c4nccn4C)nc(N4CCC(OC)C4)c3c2-c2ccccc2)cn1 (centres unmarked) [drawing 708] | – | – | 76 to 100% | 76 to 100% |
| CO[C@H]1C[C@@H](Nc2nc(-c3nccn3C)nc3sc(-c4ccn(C)n4)c(-c4ccccc4)c23)C1 [drawing 770] | 76 to 100% | 76 to 100% | – | – |
| COCCNc1nc(-c2nccn2C)nc2sc(-c3cccc(OC)c3Cl)c(-c3ccc(OC)cc3)c12 [drawing 697] | – | – | 26 to 50% | 0% |
| Cc1c(-c2ccn(C)n2)sc2nc(-c3nccn3C)nc(NCCCS(C)(=O)=O)c12 [drawing 781] | 1 to 25% | 1 to 25% | – | – |
| CO[C@H]1C[C@@H](Nc2nc(-c3ccccn3)nc3sccc23)C1 [drawing 767] | 1 to 25% | 1 to 25% | – | – |
| COC1CCN(c2nc(-c3nccn3C)nc3sc(-c4ccccc4Cl)c(-c4cscn4)c23)C1 (centres unmarked) [drawing 692] | – | – | 51 to 75% | 0% |
| CO[C@H]1CC[C@@H](Nc2nc(-c3nccn3C)nc3sc(C(=O)N4CCCC4)c(-c4ccccc4)c23)C1 [drawing 791] | 1 to 25% | 1 to 25% | – | – |
| COc1cccc(-c2sc3nc(-c4nccn4C)nc(NC4CCC(OC)C4)c3c2C)c1F (centres unmarked) [drawing 758] | 1 to 25% | 0% | – | – |
| COC1CCN(C(=O)c2sc3nc(-c4nccn4C)nc(N[C@H]4C[C@@H](OC)C4)c3c2-c2ccccc2)C1 (some centres unmarked) [drawing 788] | 0% | 0% | – | – |
| CO[C@H]1C[C@@H](Nc2nc(-c3nccn3C)nc3sccc23)C1 [drawing 768] | 26 to 50% | 1 to 25% | – | – |
| COCCCNc1nc(-c2nccn2C)nc2sc(-c3ccn(C)n3)c(-c3ccc(OC)cc3)c12 [drawing 688] | – | – | 76 to 100% | 0% |
| CO[C@H]1CCC(Nc2nc(-c3nccn3C)nc3sc(-c4ccn(C)n4)c(-c4ccccc4)c23)C1 (some centres unmarked) [drawing 683] | – | – | 76 to 100% | 76 to 100% |
| COc1c(O)nc(-c2ccccn2)nc1Oc1ccccc1 [drawing 726] | – | – | 76 to 100% | 1 to 25% |
| CC(C)NC(=O)c1nc(-c2nccn2C)nc(O)c1O [drawing 737] | – | – | 0% | 1 to 25% |
| CO[C@H]1C[C@@H](Nc2nc(-c3nccn3C)nc3sc(C(=O)N4CCOCC4)c(-c4ccccc4)c23)C1 [drawing 787] | 1 to 25% | 1 to 25% | – | – |
| COCCCNc1nc(-c2nccn2C)nc2sc(-c3ccn(C)n3)c(-c3ccccc3)c12 [drawing 677] | – | – | 76 to 100% | 76 to 100% |
| COCCNc1nc(-c2nccn2C)nc2sc(-c3cccc(OC)c3Cl)c(-c3ccccc3)c12 [drawing 700] | – | – | 76 to 100% | 76 to 100% |
| COc1ccc(-c2c(-c3cccc(OC)c3F)sc3nc(-c4nccn4C)nc(N4CCC(OC)C4)c23)cc1 (centres unmarked) [drawing 717] | – | – | 76 to 100% | 76 to 100% |
| COc1c(O)nc(-c2ccccn2)nc1Oc1ccc2ncccc2c1 [drawing 721] | – | – | 76 to 100% | 1 to 25% |
| COc1cccc(-c2sc3nc(-c4nccn4C)nc(N[C@@H]4CC[C@H](OC)C4)c3c2C)c1F [drawing 759] | 1 to 25% | 1 to 25% | – | – |
| Cc1cc(Cn2ccnc2-c2nc(O)c3scc(-c4ccccn4)c3n2)on1 [drawing 668] | – | – | 76 to 100% | 51 to 75% |
| COc1cccc(-c2sc3nc(-c4nccn4C)nc(N4CCC(OC)C4)c3c2-c2cscn2)c1 (centres unmarked) [drawing 694] | – | – | 1 to 25% | 1 to 25% |

| Compound | inhibition at 10 µM (IL-6) | inhibition at 10 µM (TNF-α) | inhibition at 30 µM (IL-6) | inhibition at 30 µM (TNF-α) |
| --- | --- | --- | --- | --- |
| COCCc1ccc(Oc2nc(-c3ccccn3)nc(O)c2OC)cc1 [drawing 725] | – | – | 76 to 100% | 1 to 25% |
| Cn1ccnc1-c1nc(O)c2scc(-c3ccccn3)c2n1 [drawing 664] | – | – | 76 to 100% | 76 to 100% |
| COc1c(F)cccc1-c1sc2nc(-c3nccn3C)nc(NC3CCC(OC)C3)c2c1-c1ccccc1 (centres unmarked) [drawing 751] | 1 to 25% | 0% | – | – |
| O=C(NC1CCCC1)c1nc(-c2ccccn2)nc(O)c1O [drawing 732] | – | – | 76 to 100% | 26 to 50% |
| CCOc1cccc(Nc2nc(-c3ccccn3)nc(O)c2OC)c1 [drawing 747] | 51 to 75% | 1 to 25% | – | – |
| CO[C@H]1CC[C@@H](Nc2nc(-c3nc(C)cn3C)nc3sc(-c4cccc5[nH]ncc45)c(C)c23)C1 [drawing 762] | 76 to 100% | 26 to 50% | – | – |
| COc1cccc(-c2sc3nc(-c4nccn4C)nc(N[C@H]4C[C@@H](OC)C4)c3c2-c2ccccc2)c1F [drawing 756] | 76 to 100% | 51 to 75% | – | – |
| Cn1ccnc1-c1nc(O)c(O)c(C(=O)NC2CCCC2)n1 [drawing 740] | – | – | 0% | 1 to 25% |
| COCC(C)Nc1nc(-c2nccn2C)nc2sc(-c3ccn(C)n3)c(-c3ccccc3)c12 (centres unmarked) [drawing 679] | – | – | 76 to 100% | 76 to 100% |
| Oc1nc(-c2cn3cccnc3n2)nc2c(-c3ccccn3)csc12 [drawing 674] | – | – | 0% | 0% |
| COC1CCC(Nc2nc(-c3nccn3C)nc3sc(-c4cccc(O)c4F)c(-c4ccccc4)c23)C1 (centres unmarked) [drawing 750] | 0% | 0% | – | – |
| O=C(c1nc(-c2ccccn2)nc(O)c1O)N1CCCC1 [drawing 731] | – | – | 0% | 1 to 25% |
| COC1CCN(c2nc(-c3nccn3C)nc3sc(-c4ccnn4C)c(-c4ccccc4)c23)C1 (centres unmarked) [drawing 703] | – | – | 26 to 50% | 0% |
| COC1CCN(c2nc(-c3nccn3C)nc3sc(-c4ccncc4C)c(-c4ccccc4)c23)C1 (centres unmarked) [drawing 709] | – | – | 76 to 100% | 26 to 50% |
| Cc1cnc(-c2nc(O)c3scc(-c4ccccn4)c3n2)n1C [drawing 671] | – | – | 76 to 100% | 76 to 100% |
| Cn1ccc(-c2sc3nc(-c4nccn4C)nc(N4CCC5(CCOC5)C4)c3c2-c2ccccc2)n1 (centres unmarked) [drawing 686] | – | – | 51 to 75% | 0% |
| COc1cccc(-c2sc3nc(-c4nccn4C)nc(NC4CCC(OC)C4)c3c2-c2ccccc2)c1F (centres unmarked) [drawing 748] | 76 to 100% | 76 to 100% | – | – |
| Cn1ccnc1-c1nc(O)c(O)c(C(=O)N2CCCCC2)n1 [drawing 741] | – | – | 0% | 1 to 25% |
| O=C(NC1CCC1)c1nc(-c2ccccn2)nc(O)c1O [drawing 736] | – | – | 76 to 100% | 1 to 25% |
| CO[C@@H]1CCC(Nc2nc(-c3nccn3C)nc3sc(-c4ccn(C)n4)c(-c4ccccc4)c23)C1 (some centres unmarked) [drawing 684] | – | – | 76 to 100% | 76 to 100% |
| COCCNc1nc(-c2nccn2C)nc2sc(-c3ccccc3Cl)c(-c3ccc(OC)cc3)c12 [drawing 695] | – | – | 26 to 50% | 0% |
| COc1cccc(-c2sc3nc(-c4nccn4C)nc(N[C@@H]4CC[C@H](OC)C4)c3c2-c2ccccc2)c1F [drawing 749] | 26 to 50% | 1 to 25% | – | – |
| COc1cccc(-c2sc3nc(-c4nc(C)cn4C)nc(N[C@@H]4CC[C@H](OC)C4)c3c2C)c1F [drawing 761] | 1 to 25% | 0% | – | – |
| COCCn1ccnc1-c1nc(O)c2scc(-c3ccc(OCC(C)C)nc3)c2n1 [drawing 763] | 26 to 50% | 1 to 25% | – | – |
| COCCN(C)C(=O)c1nc(-c2ccccn2)nc(O)c1O [drawing 735] | – | – | 0% | 1 to 25% |
| CO[C@H]1CC[C@@H](Nc2nc(-c3nccn3C)nc3sc(-c4cccc5[nH]ncc45)c(-c4ccccc4)c23)C1 [drawing 754] | 76 to 100% | 76 to 100% | – | – |
| Cn1ccc(-c2sc3nc(-c4nccn4C)nc(N[C@H]4C[C@@H](O)C4)c3c2-c2ccccc2)n1 [drawing 773] | 26 to 50% | 0% | – | – |
